The source of these data is patent US7008545B2, “Synergistic biocidal mixtures” (Hercules Incorporated, priority 2002, dated 2006).

SMILES strings stand for the structures.

Assay [1] concerns artificial bacterial consortium. Briefly: Dose protocol, bacterial growth inhibition (O.D. 650 nm) in synthetic white water, concurrent fed strategy. In kind it is cell-based. To be noted: for ppm BIT / ppm BNPD / ppm DBDCB / ppm DBNPA / ppm DCOI / ppm DGH / ppm DIDAC / ppm Dithiol / ppm Glut / ppm MBT: alone or with AmBr; for ppm Sulfone: concentration of Sulfone at 50% inhibition. As for the experimental part:
A measured amount of ammonium bromide activated with sodium hypochlorite and a measured amount of a non-oxidizing biocide were added to a suspension of bacteria. The effectiveness of the combination of the biocides is determined by measuring growth or lack thereof after an appropriate incubation time.
(§1) The efficacy of the active materials and blends was determined using a dose protocol. The actives were evaluated in synthetic white water with pH values of 5.5 and 8.0. The materials were tested against an artificial bacterial consortium containing approximately equal numbers of six bacterial strains. Although the test strains are representative of organisms present in paper mill systems, the effect is not limited to these bacteria. Two of the strains were Klebsiella pneumonia (ATCC 13883) and Pseudomonas aeruginosa (ATCC 15442). The other four strains were isolated from papermill systems and have been identified as Curtobacterium flaccumfaciens, Burkholderia cepacia, Bacillus maroccanus, and Pseudomonas glathei. Each strain was inoculated at 37° C. overnight, then suspended in sterile saline. Equal volumes of each strain were then combined to prepare the consortium. The bacterial consortium was distributed into the wells of a microtiter plate in the presence and absence of various concentrations of the active materials. The microtiter plates were incubated at 37° C. Optical density (O.D.) readings at 650 nm were taken initially (t0) and after time 4 hours (t4) of incubation.
(§2) The raw data was converted to “bacterial growth inhibition precentages” according to the following formula: % Inhibition=[(a−b)÷a]*100 where: • a=(O.D. of control at tn)−(O.D. of control at t0) • b=(O.D. of treatment at tn)−(O.D. of treatment at t0)
(§3) The inhibition values can be plotted versus dosage for each active and the particular blend. […] In the examples (tables) below, the I50 values are expressed as parts per million (ppm) of active material.
(§4) The synergism index (SI) was calculate by the equations described by F. C. Kull, P. C. Eisman, H. D. Sylwestrowicz, and R. L. Mayer (1961), Applied Microbiology 9, 538–541. The values are based on the amount needed to achieve a specified end point. The end point selected for these studies was 50% inhibition of bacterial growth. Synergy Index (SI)=(QA÷Qa)+(QB÷Qb) where: • QA=quantity of compound A in mixture, producing the end point • Qa=quantity of compound A, acting alone, producing the end point • QB=quantitiy of compound B in mixture, producing the end point • Qb=quantity of compound B, acting alone, producing the end point
(§5) If SI is less than 1, synergism exists; if SI is greater than 1, antagonism exists; if SI is equal to 1, an additive effect exists.

Assay [2] shares this test system. Briefly: Dose protocol, bacterial growth inhibition (O.D. 650 nm) in synthetic white water, sequential fed strategy, one hour delay between the additions. To be noted: for ppm DBNPA: alone or with AmBr; for ppm MBT: concentration of MBT at 50% inhibition; for ppm Sulfone: concentration of Sulfone at 50% inhibition. The class given is cell-based. As to the method:
A measured amount of ammonium bromide activated with sodium hypochlorite was added to a suspension of bacteria and the cell suspension incubated for a selected time after which a measured amount of a selected non-oxidizing biocide was then added to the suspension. The effectiveness of the combination of biocides was determined by measuring growth or lack thereof after an additional appropriate incubation time.
A measured amount of a selected non-oxidizing biocide was added to a suspension of bacteria and the cell suspension was incubated for a selected time after which a measured amount of ammonium bromide activated with sodium hypochlorite was then added to the suspension. The effectiveness of the combination of biocides was determined by measuring growth or lack thereof after an additional appropriate incubation time.
as §1, §2, §3, §4, §5

[3] abbreviates: pH 5.5, amount giving 50% inhibition.
The mark [4] stands for this setting: pH 8.0, amount giving 50% inhibition.
The mark [5] stands for this setting: DBNPA & AmBr, pH 5.5, end point 50% inhibition.
Setting [6] is: DBNPA & AmBr, pH 8.0, end point 50% inhibition.
Where [7] appears, read: pH 5.5, alone or with AmBr at the stated ratio.
Setting [8] is: pH 8.0, alone or with AmBr at the stated ratio.
Where [9] appears, read: Sulfone & AmBr, at 50% inhibition, pH 5.5.
[10] abbreviates: Sulfone & AmBr, at 50% inhibition, pH 8.0.

For the compound `O=c1[nH]sc2ccccc12` [BIT, 1,2-Benzisothiazolin-3-one], the “Synergy Index” value in assay [1] (BIT & AmBr, pH 5.5, end point 50% inhibition) is given as 1.00; in assay [1] (BIT & AmBr, pH 8.0, end point 50% inhibition), 1.00. The “ppm BIT” value is given as 1.62 ppm in assay [1] (setting [3]) and 3.59 ppm in assay [1] (setting [4]).

Take `O=[N+]([O-])C(Br)(CO)CO` [BNPD, 2-Bromo-2-nitropropane-1,3-diol]: the “Synergy Index” value in assay [1] (BNPD & AmBr, pH 5.5, end point 50% inhibition) was 1.00; in assay [1] (BNPD & AmBr, pH 8.0, end point 50% inhibition), 1.00. For the same compound, the results for the “ppm BNPD” value in assay [1] (setting [3]) and in assay [1] (setting [4]) were 1.16 ppm and 1.34 ppm, respectively.

Regarding `N#CCCC(Br)(C#N)CBr` (centres unmarked) [DBDCB, 1,2-Dibromo-2,4-dicyanobutane], the “Synergy Index” value worked out at 1.00 in assay [1] (DBDCB & AmBr, pH 5.5, end point 50% inhibition) and 1.00 in assay [1] (DBDCB & AmBr, pH 8.0, end point 50% inhibition). Besides, the “ppm DBDCB” value stood at 2.70 ppm in assay [1] (setting [3]) and 1.85 ppm in assay [1] (setting [4]).

For `N#CC(Br)(Br)C(N)=O` [DBNPA, 2,2-Dibromo-3-nitrilopropionamide], the “Synergy Index” value in assay [1] (setting [5]), in assay [1] (setting [6]), in assay [2] (setting [5]) and in assay [2] (setting [6]) was 1.00 in each case. For the same compound, the “ppm DBNPA” value in assay [1] (setting [3]) was 3.08 ppm; in assay [1] (setting [4]), 2.86 ppm; in assay [2] (setting [3]) it was 3.09 ppm; in assay [2] (setting [4]) it was 2.33 ppm.

As for `CCCCCCCCn1sc(Cl)c(Cl)c1=O` [DCOI, 4,5-Dichloro-2-n-octyl-3(2H)-isothiazolinone], the “Synergy Index” value in assay [1] (DCOI & AmBr, pH 5.5, end point 50% inhibition) was found to be 1.00; in assay [1] (DCOI & AmBr, pH 8.0, end point 50% inhibition), 1.00. For the same compound, the results for the “ppm DCOI” value in assay [1] (setting [3]) and in assay [1] (setting [4]) were 0.39 ppm and 1.49 ppm, respectively.

`CCCCCCCCCCCCNC(=N)N.Cl` [DGH, N-Dodecylguanidine hydrochloride]: the “Synergy Index” value in assay [1] (DGH & AmBr, pH 5.5, end point 50% inhibition) worked out at 1.00; in assay [1] (DGH & AmBr, pH 8.0, end point 50% inhibition), 1.00. In addition, the entries for the “ppm DGH” value in assay [1] (setting [3]) and in assay [1] (setting [4]) were 3.11 ppm and 1.84 ppm, respectively.

In the case of `CCCCCCCCCC[N+](C)(C)CCCCCCCCCC.[Cl-]` [DIDAC, Didecyl dimethyl ammonium chloride], the “Synergy Index” value was 1.00 in assay [1] (DIDAC & AmBr, pH 5.5, end point 50% inhibition) and 1.00 in assay [1] (DIDAC & AmBr, pH 8.0, end point 50% inhibition). The “ppm DIDAC” value in assay [1] (setting [3]) was 1.82 ppm; in assay [1] (setting [4]), 1.62 ppm.

Take `O=c1ssc(Cl)c1Cl` [Dithiol, 4,5-Dichloro-1,2-dithiol-3-one]: the “Synergy Index” value in assay [1] (Dithiol & AmBr, pH 5.5, end point 50% inhibition) worked out at 1.00; in assay [1] (Dithiol & AmBr, pH 8.0, end point 50% inhibition) it was 1.00. The results for the “ppm Dithiol” value in assay [1] (setting [3]) and in assay [1] (setting [4]) were 0.63 ppm and 0.84 ppm, respectively.

Consider `O=CCCCC=O` [Glut, Glutaraldehyde], for which the “Synergy Index” value in assay [1] (Glut & AmBr, pH 5.5, end point 50% inhibition) turned out to be 1.00; in assay [1] (Glut & AmBr, pH 8.0, end point 50% inhibition), 1.00. The figures for the “ppm Glut” value in assay [1] (setting [3]) and in assay [1] (setting [4]) were 2.06 ppm and 6.68 ppm, respectively.

Turning to `N#CSCSC#N` [MBT, Methylene bisthiocyanate], the “Synergy Index” value in assay [1] (MBT & AmBr, pH 5.5, end point 50% inhibition) amounted to 1.00; in assay [1] (MBT & AmBr, pH 8.0, end point 50% inhibition), 1.00; in assay [2] (MBT & AmBr, at 50% inhibition, pH 5.5), 1.00; in assay [2] (MBTC & AmBr, at 50% inhibition, pH 8.0) it was 1.00. Moreover, the “ppm MBT” value in assay [1] (setting [3]) came out at 0.36 ppm; in assay [1] (setting [4]), 0.71 ppm; in assay [2] (setting [7]), 0.38 ppm; in assay [2] (setting [8]), 0.73 ppm.

On to `O=S(=O)(C(Cl)(Cl)Cl)C(Cl)(Cl)Cl` [Sulfone, bis(trichloromethyl)sulfone], for which the “Synergy Index” value in assay [1] (setting [9]), in assay [1] (setting [10]), in assay [2] (setting [9]) and in assay [2] (setting [10]) was 1.00 each time. The “ppm Sulfone” value was 1.87 ppm in assay [1] (setting [7]), 8.42 ppm in assay [1] (setting [8]), 4.44 ppm in assay [2] (setting [7]) and 10.25 ppm in assay [2] (setting [8]).
